Reference: patent US11739063B2, “DREADD actuators” (The United States of America, as represented by the …, priority 2018, dated 2023)
Entries after “also recorded” stand apart in the source; their conditions may differ. Where two headings read alike, the source gives them in different places.

How the values were obtained:
[1] = biological target: T1, hM4Di (Gi1) (Homo sapiens, UniProt P08173, A203G/Y113C); assay: BRET assay of Gi1 activation in HEK-293 cells with hM4Di; format: cell-based; conditions: for EC50: BRET change 5 minutes after addition; for Gi1 activation (BRET ratio): cells with hM4Di versus cells without DREADDs
T1 construct: host or cells: HEK-293
T1 sequence (P08173 1-479 Y113C/A203G): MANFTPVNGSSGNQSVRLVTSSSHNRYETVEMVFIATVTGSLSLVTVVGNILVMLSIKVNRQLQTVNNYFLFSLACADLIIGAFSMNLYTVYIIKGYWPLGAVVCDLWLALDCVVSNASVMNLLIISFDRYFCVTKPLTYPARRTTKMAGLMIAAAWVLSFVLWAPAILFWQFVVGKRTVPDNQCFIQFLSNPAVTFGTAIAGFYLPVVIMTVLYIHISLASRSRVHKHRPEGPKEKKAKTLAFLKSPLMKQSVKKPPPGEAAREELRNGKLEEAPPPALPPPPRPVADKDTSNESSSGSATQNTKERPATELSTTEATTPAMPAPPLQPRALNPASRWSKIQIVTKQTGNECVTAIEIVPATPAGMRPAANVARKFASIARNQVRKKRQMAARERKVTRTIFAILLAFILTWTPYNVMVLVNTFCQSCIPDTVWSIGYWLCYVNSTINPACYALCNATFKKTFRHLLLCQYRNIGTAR
Procedure: (§1) Bioluminescence resonance energy transfer (“BRET”) assays were performed to detect receptor ligand-induced Gi/o protein activation. […] Forty-eight hours after transfection cells were harvested, washed and resuspended in phosphate-buffered saline (“PBS”). Approximately 200,000 cells/well were distributed in 96-well plates, and 5 μM Coelenterazine H (substrate for luciferase) was added to each well.
(§2) Results were calculated for the BRET change (BRET ratio for the corresponding compound minus BRET ratio in the absence of the compound) 5 minutes after the addition of the compounds.

[2] = biological target: T2, hM4Di (Go1) (Homo sapiens, UniProt P08173, A203G/Y113C); assay: BRET assay of Go1 activation in HEK-293 cells with hM4Di; format: cell-based; conditions: for EC50: BRET change 5 minutes after addition; for Go1 activation (BRET ratio): cells with hM4Di versus cells without DREADDs
T2 construct: host or cells: HEK-293
T2 sequence (P08173 1-479 Y113C/A203G): T1 sequence (P08173 1-479 Y113C/A203G)
Procedure: as §1, §2

[3] = biological target: T3, hM3Dq (Homo sapiens, UniProt P20309, A239G/Y149C); assay: Calcium accumulation assay (GCaMP6f) in HEK293 cells with hM3Dq; conditions: for hM3Dq activation (fluorescence, calcium accumulation): cells with hM3Dq versus cells without DREADDs
T3 sequence (P20309 whole entry Y149C/A239G): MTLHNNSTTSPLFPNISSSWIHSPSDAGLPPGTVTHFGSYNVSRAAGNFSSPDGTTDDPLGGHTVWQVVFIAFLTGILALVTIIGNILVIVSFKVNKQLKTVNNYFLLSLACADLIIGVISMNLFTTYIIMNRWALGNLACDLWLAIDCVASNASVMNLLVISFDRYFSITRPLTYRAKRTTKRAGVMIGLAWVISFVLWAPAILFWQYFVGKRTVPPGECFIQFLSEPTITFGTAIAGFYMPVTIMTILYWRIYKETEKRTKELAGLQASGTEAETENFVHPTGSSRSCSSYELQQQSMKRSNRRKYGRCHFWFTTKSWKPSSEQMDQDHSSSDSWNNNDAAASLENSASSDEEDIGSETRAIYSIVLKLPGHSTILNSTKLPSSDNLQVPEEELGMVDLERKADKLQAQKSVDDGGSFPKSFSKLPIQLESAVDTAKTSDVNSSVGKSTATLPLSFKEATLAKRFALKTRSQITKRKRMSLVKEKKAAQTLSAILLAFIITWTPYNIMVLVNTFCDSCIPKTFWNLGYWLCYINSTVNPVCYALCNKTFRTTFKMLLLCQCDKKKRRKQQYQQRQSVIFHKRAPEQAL
Procedure: The changes in fluorescence were read every 18 seconds for 5 minutes.

[4] = tested on: D1-hM3Dq, D1-hM4Di or WT mice; assay: FDG-PET brain metabolic mapping (DREAMM); format: in vivo
Procedure: The study was set up as follows. Mice (D1-hM3Dq, D1-hM4Di or WT littermates) were habituated to experimenter handling and fasted 16 hours before the experiment. On the day of the experiment, mice received an IP injection of vehicle (1 ml/kg) and were placed back into their home cages. Ten minutes later, mice were injected (IP) with 11 MBq of 2-deoxy-2-[^18F]fluoro-D-glucose (FDG, Cardinal Health, Westmont, Ill.) and placed back into their home cages. After 30 minutes, mice were anesthetized with 1.5% isoflurane, placed on a custom-made bed of a NANOSCAN small animal PET/CT scanner (Mediso Medical Imaging Systems) and scanned for 20 min on a static acquisition protocol, followed by a CT scan. […] In all cases, the PET data were reconstructed and co-registered to an MRI template as described above. Voxel-based repeated measures with Student's t-test comparing baseline to drug were performed, and the resulting parametric images were filtered for statistically significant (p<0.05) clusters larger than 100 contiguous voxels. All statistical parametric mapping analyses were performed using MATLAB R2016 (Mathworks, Chicago, Ill.) and SPM12 (University College London).

[5] = biological target: T3, hM3Dq; assay: Radioligand binding assay, [3H]clozapine competition, hM3Dq membranes; parameters: host or cells: HEK-293; conditions: for Ki: HEK-293 membranes, 2.5 nM [3H]clozapine, Cheng-Prusoff; for Binding to the tested DREADDs (in words): hM3Dq and hM4Di
Procedure: (§3) HEK-293 cells were transfected with 5 μg/dish of pAAV plasmids encoding for hM3Dq (available from Addgene, Cambridge, Mass., plasmid #89149), hM4Di (available from Addgene, Cambridge, Mass., plasmid #89150) or a control vector and harvested 48 hours after transfection. […] The protein was quantified by the bicinchoninic acid method. […] Microscint-20 scintillation liquid ([…]) was added to the filter plates, plates were incubated overnight at room temperature and radioactivity counts were determined in a MICROBETA^2™ (PerkinElmer, Waltham, Mass.) plate counter with an efficiency of 41%. Competition curves were fitted to a one binding site model and Ki values were calculated using the Cheng-Prusoff equation.

[6] = biological target: T4, hM4Di (Homo sapiens, UniProt P08173, A203G/Y113C); assay: Radioligand binding assay, [3H]clozapine competition, hM4Di membranes; parameters: host or cells: HEK-293; conditions: HEK-293 membranes, 2.5 nM [3H]clozapine, Cheng-Prusoff
T4 sequence (P08173 1-479 Y113C/A203G): T1 sequence (P08173 1-479 Y113C/A203G)
Procedure: as §3

[7] = tested on: mice with D1-hM3Dq receptors; assay: Locomotor activity assay (open-field test); format: in vivo; conditions: 0.01, 0.1, 1 mg/kg intraperitoneal; compared with clozapine
Procedure: Transgenic male and female mice (25-30 g, offspring of D1-Cre (heterozygous)×R26-hM3Dq/mCitrine (heterozygous) crossing) either heterozygous for both loci (CRE+, het het) or wild type for D1-Cre (CRE−, wt het) were tested for locomotor activity. The mice were injected (intraperitoneal) with the indicated dose of clozapine, compound I(g), or vehicle (buffered saline).

[8] = tested on: DREADDs (hM3Dq, hM4Di) and endogenous clozapine-binding sites; assay: Autoradiography, [3H]clozapine displacement in brain sections of wild-type and transgenic DREADD mice; conditions: about 3.5 nM [3H]clozapine, WT
Procedure: Flash frozen brain tissue was sectioned (20 μm) on a cryostat and thaw mounted onto ethanol-washed glass slides. […] Following incubation, the slides were washed with an incubation buffer for 5 mins (2×) followed by a 30 second dip in ice-cold deionized H2O. The slides were then air-dried, placed in a […]™ (GE Healthcare, UK) autoradiography cassette, covered with a BAS-TR2025 Storage Phosphor Screen (GE Healthcare, UK), exposed for 3-5 days, and imaged using a phosphorimager.

[9] = biological target: T4, hM4Di; assay: hM4Di-driven inhibition of light-evoked neuronal activation; format: in vivo; conditions: 0.1 mg/kg

SMILES | EC50 [1] [nM] | EC50 [2] [nM] | EC50 [3] [nM] | Ki [5] [nM] | Ki [6] [nM] | further results
C[N+]1([O-])CCN(C2=Nc3cc(Cl)ccc3Nc3ccccc32)CC1 [CNO, clozapine n-oxide, reference compound] | 13 | 3.1 | – | – | – | EC50 ([3]; read-out: EC50 value for hM3Dq, mean, calcium accumulation, fluorescence): 11.3 nM
[2H]C([2H])(C)N1CCN(C2=Nc3cc(Cl)ccc3Nc3ccccc32)CC1 [Compound 13, reference compound] | 0.067 | 0.063 | 1.43 | – | – | –
CCN1CCN(C2=Nc3cc(Cl)ccc3Nc3ccc(F)cc32)CC1 [Compound I(a), 8-chloro-11-(4-ethylpiperazin-1-yl)-2-fluoro-5H-dibenzo[b,e][1,4]diazepine] | – | – | – | 10.5 | 23.5 | Recruitment of whole-brain functional networks (FDG-PET) ([4]; D1-hM3Dq and D1-hM4Di mice, 0.1 mg/kg, n=4 per condition): opposing and differential recruitment of whole-brain functional networks
CCN1CCN(C2=Nc3ccccc3Nc3ccc(F)cc32)CC1 [Compound I(b), 11-(4-Ethylpiperazin-1-yl)-2-fluoro-5H-dibenzo[b,e][1,4]diazepine] | – | – | – | 33.5 | 118 | –
CCN1CCN(C2=Nc3ccccc3Nc3cc(F)ccc32)CC1 [Compound I(d), 11-(4-Ethylpiperazin-1-yl)-3-fluoro-5H-dibenzo[b,e][1,4]diazepine] | – | – | – | 101 | 149 | –
CCN1CCN(C2=Nc3ccccc3Nc3cccc(F)c32)CC1 [Compound I(e), 11-(4-Ethylpiperazin-1-yl)-1-fluoro-5H-dibenzo[b,e][1,4]diazepine] | – | – | – | 4.8 | 14.2 | –
CCN1CCN(C2=Nc3cc(Cl)ccc3Nc3cccc(F)c32)CC1 [Compound I(g), 8-Chloro-11-(4-ethylpiperazin-1-yl)-1-fluoro-5H-dibenzo[b,e][1,4]diazepine] | 0.24 | 0.8 | 5.15 | 1.7 | 8.7 | Gi1 activation (BRET ratio) [1]: activate Gi1; Go1 activation (BRET ratio) [2]: activate Go1; Reduction of locomotor activity (distance traveled) [7]: more effective than clozapine at reducing locomotor activity; Binding to the tested DREADDs (in words) [5]: especially effective at binding the tested DREADDs; hM3Dq activation (fluorescence, calcium accumulation) [3]: effective at activating hM3Dq

Now from value to compound, other results behind:

EC50 [1] [nM] | EC50 [2] [nM] | EC50 [3] [nM] | Ki [5] [nM] | Ki [6] [nM] | SMILES | further results
2.7 | 1.7 | 1.66 | – | – | c1ccc2c(c1)N=C(N1CCNCC1)c1ccccc1N2 [Compound 21, reference compound] | Brain metabolic activity (FDG-PET) ([4]; WT mice, 1 mg/kg): significant changes in brain metabolic activity; also recorded: decreased metabolic activity of multiple networks
– | – | – | 51.4 | 51.3 | CCN1CCN(C2=Nc3cc(Cl)ccc3Nc3cc(F)ccc32)CC1 [Compound I(c), 8-Chloro-11-(4-ethylpiperazin-1-yl)-3-fluoro-5H-dibenzo[b,e][1,4]diazepine] | –
– | – | – | 23.7 | 12.9 | CCN1CCN(C2=Nc3cc(F)ccc3Nc3ccccc32)CC1 [Compound I(f), 11-(4-Ethylpiperazin-1-yl)-8-fluoro-5H-dibenzo[b,e][1,4]diazepine] | –
0.073 | 0.14 | 2.64 | 1.9 | 3.6 | CCN1CCN(C2=Nc3cc(Cl)ccc3Nc3c(F)cccc32)CC1 [Compound I(h), 8-Chloro-11-(4-ethylpiperazin-1-yl)-4-fluoro-5H-dibenzo[b,e][1,4]diazepine] | Displacement of [3H]clozapine binding ([8]; at 10 nM): selectively displaced [^3H]clozapine binding to DREADDs but not to endogenous sites; Displacement of [3H]clozapine binding ([8]; at 1 μM): completely displaced [^3H]clozapine binding to both DREADDs and endogenous clozapine-binding sites; Gi1 activation (BRET ratio) [1]: activate Gi1; Go1 activation (BRET ratio) [2]: activate Go1; Reduction of locomotor activity (distance traveled) [7]: more effective than clozapine at reducing locomotor activity; Brain metabolism change (DREAMM) ([4]; D1-hM3Dq mice, 0.1 mg/kg IP): decreased metabolism; Brain metabolism change (DREAMM) ([4]; D1-hM4Di mice, 0.1 mg/kg IP): increased metabolism; Brain metabolic changes (FDG-PET) ([4]; WT mice, 0.1 mg/kg IP): no significant brain metabolic changes; Inhibition of light-evoked neuronal activation [9]: rapid and potent hM4Di-driven inhibition; Binding to the tested DREADDs (in words) [5]: especially effective at binding the tested DREADDs; hM3Dq activation (fluorescence, calcium accumulation) [3]: effective at activating hM3Dq
